From patent publication US20040242591A1, “Oxazolidinone derivatives as pontential antimicrobials” (priority 2001, published 2004)

How the values were obtained:
[1] = tested on: Ent. faecalis ATCC 29212; test: MIC by agar incorporation method, E.faecalis 29212; type: cell-based, Enterococcus faecalis; parameters: unit not given here; settings: Mueller Hinton agar, 10^4 CFU/spot, 18 hours
Description: 3) Ent. faecalis ATCC 29212—Enterococcus faecalis ATCC 29212

[2] = tested on: S.aureus ATCC 25923; test: MIC by agar incorporation method, S.aureus 25923; type: cell-based, Staphylococus aureus; parameters: unit not given here; settings: Mueller Hinton agar, 10^4 CFU/spot, 18 hours
[3] = tested on: Strep. pne. ATCC 6303; test: MIC by agar incorporation method, S. pneum 6303; type: cell-based, Streptococcus pneumoniae; settings: Mueller Hinton agar, 10^4 CFU/spot, 18 hours
Description: 5) Strep. pne. ATCC 6303—Streptococcus pneumoniae ATCC 6303

[4] = tested on: Strep.pyog. ATCC 19615; test: MIC by agar incorporation method, S.pyogenes 19615; type: cell-based, Streptococcus pyogenes; parameters: unit not given here; settings: Mueller Hinton agar, 10^4 CFU/spot, 18 hours
Description: 6) Strep.pyog. ATCC 19615—Streptococcus pyogenes

[5] = tested on: MRSA 33; test: MIC by agar incorporation method, MRSA 33; type: cell-based, Methicillin Resistant Staphylococcus aureus; parameters: unit not given here; settings: Mueller Hinton agar, 10^4 CFU/spot, 24 hours
[6] = tested on: MRSA 15187; test: MIC by agar incorporation method, MRSA 15187; type: cell-based, Methicillin Resistant Staphylococcus aureus; parameters: unit not given here; settings: Mueller Hinton agar, 10^4 CFU/spot, 24 hours
Description: 2) MRSA 15187—Methicillin Resistant Staphylococcus aureus

[7] = tested on: MRSA 562; test: MIC by agar incorporation method, MRSA 562; type: cell-based, Methicillin Resistant Staphylococcus aureus; parameters: unit not given here; settings: Mueller Hinton agar, 10^4 CFU/spot, 24 hours
[8] = tested on: S. pneum AB 34; test: MIC by agar incorporation method, S. pneum AB 34; type: cell-based, Streptococcus pneumoniae; parameters: unit not given here; settings: Mueller Hinton agar, 10^4 CFU/spot, 18 hours
[9] = tested on: VRE 6A; test: MIC by agar incorporation method, VRE 6A; type: cell-based, Enterococcus faecium; parameters: unit not given here; settings: Mueller Hinton agar, 10^4 CFU/spot, 18 hours
Description: 4) Ent. faecium […]—Enterococcus faecium 6A Van®, Cipro®

Compound | In Vitro (MIC) E.faecalis 29212 [1] | In Vitro (MIC) S.aureus 25923 [2] | In Vitro (MIC) S. pneum 6303 [3] | In Vitro (MIC) S.pyogenes 19615 [4] | In Vitro (MIC) MRSA 33 [5] | In Vitro (MIC) MRSA 15187 [6] | In Vitro (MIC) MRSA 562 [7] | In Vitro (MIC) S. pneum AB 34 [8] | In Vitro (MIC) VRE 6A [9]
CC(=O)NC[C@H]1CN(c2ccc(N3CCN(Cc4cc([N+](=O)[O-])cn4C)CC3)c(F)c2)C(=O)O1 [Compound No. 11] | 4 | 4 | 2 mg/L | 2 | 4 | 4 | 4 | 4 | 4
O=C(CF)NC[C@H]1CN(c2ccc(N3CCC(Cc4ccc([N+](=O)[O-])o4)CC3)c(F)c2)C(=O)O1 [Compound No. 42, (S)-N-[[3-[3-Fluoro-4-[N-1-[4-{2-furyl(5-nitro)methyl}]piperinyl]phenyl]-2-oxo-5-oxazolidinyl]methyl]-fluoroacetamide] | 4 | 4 | 1 mg/L | 0.5 | 4 | 2 | 2 | 2 | 4
CC(=O)NC[C@H]1CN(c2ccc(N3CCN(C(=O)c4occc4C)CC3)c(F)c2)C(=O)O1 [Compound No. 36, (S)-N-[[3-[3-Fluoro-4-[N-1-[4-{2-furoyl-(3-methyl)}]piperazinyl]phenyl]-2-oxo-5-oxazolidinyl]methyl]acetamide] | 2 | 2 | 0.5 mg/L | 1 | 2 | 2 | 2 | 1 | 1
CC(=O)NC[C@H]1CN(c2ccc(N3CCN(Cc4cc(C#N)c([N+](=O)[O-])s4)CC3)c(F)c2)C(=O)O1 [Compound No. 6] | 4 | 2 | 1 mg/L | 1 | 2 | 2 | 2 | 1 | 8

Second part, the compound after the results:

In Vitro (MIC) E.faecalis 29212 [1] | In Vitro (MIC) S.aureus 25923 [2] | In Vitro (MIC) S. pneum 6303 [3] | In Vitro (MIC) S.pyogenes 19615 [4] | In Vitro (MIC) MRSA 33 [5] | In Vitro (MIC) MRSA 15187 [6] | In Vitro (MIC) MRSA 562 [7] | In Vitro (MIC) S. pneum AB 34 [8] | In Vitro (MIC) VRE 6A [9] | Compound
0.125 | 1 | 1 mg/L | 0.06 | 1 | 1 | 1 | 2 | 0.25 | CC(=O)NC[C@H]1CN(c2ccc(N3CCN(C(C)c4ccc([N+](=O)[O-])o4)CC3)c(F)c2)C(=O)O1 (stereo partly drawn) [Compound No. 101]
4 | 4 | 4 mg/L | 4 | 2 | 2 | 2 | 8 | 4 | CC(=O)NC[C@H]1CN(c2ccc(N3CCC(CN(C)Cc4ccc([N+](=O)[O-])s4)CC3)c(F)c2)C(=O)O1 [Compound No. 94]
2 | <0.25 | 4 mg/L | <0.25 | <0.25 | 0.5 | <0.25 | 4 | 1 | CC(=O)NC[C@H]1CN(c2ccc(N3CCN(C(=O)c4ccc([N+](=O)[O-])s4)C(C)C3)c(F)c2)C(=O)O1 (stereo partly drawn) [Compound No. 70, (S)-N-[[3-[3-Fluoro-4-[N-1-[3-methyl-4-{2-thienoyl-(5-nitro)}]-piperazinyl]phenyl]-2-oxo-5-oxazolidinyl]methyl]acetamide]
4 | 4 | 8 mg/L | 4 | 4 | 4 | 2 | 16 | 4 | CC(=O)NC[C@H]1CN(c2ccc(N3CCN(Cc4ccc([N+](=O)[O-])o4)CC3C)c(F)c2)C(=O)O1 (stereo partly drawn) [Compound No. 58, (S)-N-[[3-[3-Fluoro-4-[N-1-[2-methyl-4-{2-furyl(5-nitro)methyl}]-piperazinyl]phenyl]-2-oxo-5-oxazolidinyl]methyl]acetamide]
4 | 4 | 8 mg/L | 8 | 4 | 4 | 4 | 8 | 4 | CCN(Cc1ccc([N+](=O)[O-])s1)C1CCN(c2ccc(N3C[C@H](CNC(C)=O)OC3=O)cc2F)CC1 [Compound No. 83, (S)-N-[[3-[3-Fluoro-4-[4-{N-ethyl-N-2-thiophenyl-(5-nitro)methyl}-aminopiperidine-1-yl]phenyl]-2-oxo-5-oxazolidinyl]methyl]acetamide]
